Measurements from patent US20100063162A1, “METHOD FOR PREDICTING EFFICACY OF RAR-ALPHA AGONIST” (TAIHO PHARMACEUTICAL CO., LTD., priority 2005, published 2010).

Legend:
[1] = system: colorectal cancer cell line CAC; assay: Survival after spleen inoculation (liver metastasis model), CAC; type: in vivo, nude mouse; conditions: oral every day for 4 weeks, nude mice
Source text: (§1) Further, correlation between the cofactor balance and survival advantage was examined by using cancer cell lines for which survival were evaluatable. When cells of the colorectal cancer cell line CAC, having an AIB1/SP110b ratio of 0.08 so as to be dominant in SP110b, and the aforementioned HCC-E cells are inoculated in the nude mouse spleen, dissemination easily occurs in the liver, resulting in formation of a metastatic condition in the liver. After 1×10^6 of CAC or HCC-E cells were transplanted, and TAC-101 was orally administered every day for 4 weeks, the survival time of each model animal was observed. In the CAC model, in which SP110b was dominant, prolongation of the survival time was only 26%, whereas in the HCC-E model, in which the class of the p160 family molecule was dominant, nearly […] longer survival time prolongation of 81% was confirmed. Further, this effect in the HCC-E model was also statistically significant (P<0.001).

[2] = system: HCC-C; assay: Orthotopic hepatoma model, tumor weight in the liver, HCC-C; type: in vivo, nude mouse; conditions: oral everyday, 3 weeks, nude mice
Protocol: (§2) Accordingly, an experiment of therapeutic treatment was performed to examine susceptibility to RAR-α agonists. The cultured liver cancer cells were transplanted in an amount of 1×10^6 cells into the outer left lobes of the livers in nude mice (BALB/cA Jcl-nu, Clea Japan, Inc.), TAC-101 as an RAR-α agonist was orally administered everyday as a 0.5% hydroxypropylmethylcellulose suspension (Shin-Etsu Chemical Co., Ltd.), and then the weights of tumors formed in the livers were measured 3 weeks later to obtain mean inhibition rates. […] Further, it was also observed by two-sided Student's t test that these antitumor effects were statistically significant inhibitory action.

[3] = system: HCC-D; assay: Orthotopic hepatoma model, tumor weight in the liver, HCC-D; type: in vivo, nude mouse; conditions: oral everyday, 3 weeks, nude mice
Protocol: as §2

[4] = system: HCC-E; assay: Orthotopic hepatoma model, tumor weight in the liver, HCC-E; type: in vivo, nude mouse; conditions: oral everyday, 3 weeks, nude mice
Protocol: as §2

[5] = system: human liver cancer; conditions: phase II study; cited from earlier work
[6] = system: HCC-E cells; assay: Survival after spleen inoculation (liver metastasis model), HCC-E; type: in vivo, nude mouse; conditions: oral every day for 4 weeks, nude mice
Source text: as §1

[7] = system: liver cancer; conditions: animal model of liver cancer; cited from earlier work
[8] = system: RAR-α; assay: RAR-α transcription activity test (pRARE-SEAP reporter) in hepatocellular carcinoma cells; type: cell-based, human; conditions: for RAR response (T/C %): 24 hours, untreated cells = 100
Protocol: The test for confirming the RAR-α transcription activity was performed as follows.
Hepatocellular carcinoma cells of each type transfected with a reporter plasmid containing an RAR-α binding sequence with the SEAP gene in a downstream region (pRARE-SEAP-TA-vector, Clontech) were treated with an RAR-α agonist, and then the SEAP alkaline phosphatase activity in the culture supernatant was measured. The cultured hepatocellular carcinoma cells were transfected with the RARE reporter plasmid mixed in a transfection reagent prepared by using the culture broth and FuGENE6 solution at a ratio of 100:6 and cultured for 24 hours. The culture broth was replaced with the one containing TAC-101 as an RAR-α agonist, and the cells were cultured for further 24 hours. Then, the culture supernatant was collected, and transcription activity was confirmed by using an alkaline phosphatase activity measurement reagent (SEAP Detection Kit, Clontech).

## C[Si](C)(C)c1cc(C(=O)Nc2ccc(C(=O)O)cc2)cc([Si](C)(C)C)c1 [TAC-101, 4-[3,5-Bis(trimethylsilyl)benzamido]benzoic acid]
[1]
  Increase of life span (%): 26%
[2]
  Inhibition (%) of tumor growth (tumor weight, mean inhibition rate): 81%
[3]
  Inhibition (%) of tumor growth (tumor weight, mean inhibition rate): −3%
  therapeutic effect (in words): no therapeutic effect was observed
[4]
  Inhibition (%) of tumor growth (tumor weight, mean inhibition rate): 67%
[5]
  prevention of tumor progression: 43%
[6]
  Increase of life span (%): 81%
[7]
  antitumor activity (in words): antitumor activity of TAC-101 was observed
[8]; HCC-A cells, TAC-101 0.3 μM
  RAR response (T/C %): 142%
[8]; HCC-A cells, TAC-101 1 μM
  RAR response (T/C %): 110%
[8]; HCC-A cells, TAC-101 3 μM
  RAR response (T/C %): 143%
[8]; HCC-B cells, TAC-101 0.3 μM
  RAR response (T/C %): 180%
[8]; HCC-B cells, TAC-101 1 μM
  RAR response (T/C %): 188%
[8]; HCC-B cells, TAC-101 3 μM
  RAR response (T/C %): 146%
[8]; HCC-C cells
  RAR transcription activity induced by TAC-101 (in words): high
[8]; HCC-C cells, TAC-101 0.3 μM
  RAR response (T/C %): 342%
[8]; HCC-C cells, TAC-101 1 μM
  RAR response (T/C %): 497%
[8]; HCC-C cells, TAC-101 3 μM
  RAR response (T/C %): 285%
[8]; HCC-D cells
  RAR transcription activity induced by TAC-101 (in words): weak
[8]; HCC-D cells, TAC-101 0.3 μM
  RAR response (T/C %): 161%
[8]; HCC-D cells, TAC-101 1 μM
  RAR response (T/C %): 161%
[8]; HCC-D cells, TAC-101 3 μM
  RAR response (T/C %): 168%
[8]; HCC-E cells
  RAR transcription activity induced by TAC-101 (in words): high
[8]; HCC-E cells, TAC-101 0.3 μM
  RAR response (T/C %): 476%
[8]; HCC-E cells, TAC-101 1 μM
  RAR response (T/C %): 482%
[8]; HCC-E cells, TAC-101 3 μM
  RAR response (T/C %): 259%
